According to patent publication US9056105B2, “Method for treatment of bone diseases and fractures” (INDIANA UNIVERSITY RESEARCH AND TECHNOLOGY CORPORATION, priority 2008, dated 2015):

Assays:
femora of C57BL/6 mice = assay: Intramedullary injection into mouse femur, BMD and BMC; type: in vivo
Description: Responses to Administration of Salubrinal—In Vivo Responses to salubrinal: In order to evaluate the effects of salubrinal in vivo, salubrinal was injected into an intramedullary cavity of the left femora of C57BL/6 mice and alterations in bone mineral density (BMD) and bone mineral content (BMC) were determined. There were 9 salubrinal treated mice as well as 9 placebo mice (injection of PBS). All mice received 4 injections of either salubrinal or PBS in the left femur, while the right femur was used as contralateral control. In four consecutive injections with a 0.5-inch #26-gauge needle and a Hamilton micro-syringe, the laterial side was used on the 1st and 3rd injections and the medial side on the 2nd and 4th injections. An injection volume was 20 μl for salubrinal or PBS, and the salubrinal concentration was 50 μM. […] At the time of harvest (2 wks after the 1st injection), an increase in body weight in Salubrinal group (0.80±0.13 g) was higher than that in Placebo group (0.28±0.15 g; p<0.05). Harvested bone samples were analyzed with PIXImus (version 1.4, GE Medical System Lunar) for determination of BMD and BMC.

rat tibia = assay: Rat tibia healing of surgical wounds, micro CT; type: in vivo; conditions: for reduction in wound size vs control: medial cortex
Excerpt: Rat tibia—healing of surgical wounds. Twenty female SD rats (˜8 weeks, body weight˜180 g) received a surgical hole with ˜2.0 mm in diameter in the left and right tibiae (Zhang P., et al., Knee loading accelerates bone healing in mice, J. Bone Miner. Res. 22:1979-1987 (2007)). The hole was located on the medial surface ˜15 mm distant apart from the proximal end of the tibia (Chiba S., et al., Molecular analysis of defect healing in rat diaphyseal bone, J. Vet. Med. Sci. 63:603-606 (2001)). During the first 5 days, 100 μl of salubrinal solution at dosage of 0.025 mg/kg was injected into the left limb and a PBS solution (vehicle control) in the right limb (Wang J W, et al., Locally applied simvastatin promotes fracture healing in ovariectomized rat, Osteoporosis Int. 18:1641-1650 (2007)). Injection was subcutaneous targeted to the wound site. Rats were sacrificed on days 10 or 20 after surgery, and the axial and transverse length of the holes as well as cortical thickness (1.5 mm proximal and distal to the center of the hole) were determined with micro CT imaging (μCT-20, Scanco Medical AG) (FIG. 16).

MLO-A5 osteocyte cells = assay: mRNA levels by real-time PCR in MLO-A5 osteocyte cells; type: cell-based; conditions: 100 nM-50 μM, 1-24 h
Description: (§1) Responses to Administration of Salubrinal—In vitro responses to salubrinal: In order to evaluate the effects of salubrinal, MC3T3 E1 osteoblast-like cells and MLO-A5 osteocyte cells (Barragan-Adjemian, C., et al., “Mechanism by which MLO-A5 late osteoblasts/early osteocytes mineralize in culture: similarities with mineralization of lamellar bone,” Calcif. Tissue Int. 79:340-353 (2006)) were incubated with salubrinal at 100 nM-50 μM for 1-24 h. The mRNA levels of the selected genes, TF4, ATF3, Osteocalcin (OCN), and CHOP, were determined by real-time PCR. […] In MC3T3 cells, for instance, the Osteocalcin mRNA level, which is regulated by ATF4 and Runx2 (Xiao et al. 2005), was elevated 11.8±0.2 fold at 10 μM salubrinal in 24 h.

rat brain = conditions: intra-cerebroventricular or intra-peritoneal administration; cited from earlier work
rat femur = assay: Rat femur healing of surgical wounds, micro CT; type: in vivo; conditions: for increase in cortical thickness vs control: anterior hole; for reduction in wound size vs control: anterior holes; for increase in cortical thickness: posterior hole
Description: Rat femur—healing of surgical wounds. A surgical hole with ˜2.0 mm in diameter was generated in the left and right femurs of twenty female SD rats (˜8 weeks, body weight ˜180 g). The holes were drilled through the femur from the anterior surface to the opposite cortex (posterior surface) in the middle of the femur. During the first 5 days, 100 μl of salubrinal solution at dosage of 0.025 mg/kg was injected subcutaneously to the left limb and a PBS solution (vehicle control) in the right limb. The injection site was closed to the anterior surgical hole. Rats were sacrificed on days 10 or 20 after surgery, and the axial and transverse hole sizes as well as cortical thickness (1.5 mm proximal and distal to the center of the hole) were determined with micro CT. […] Regarding the anterior holes, the size of the wounds 10 days after surgery was smaller in the salubrinal treated group by 10.8% (1.905±0.018 mm in control and 1.700±0.021 mm in salubrinal; p<0.001). The size in 20 day samples was further decreased by 18.0% (1.812±0.017 mm in control and 1.486±0.026 mm in salubrinal; p<0.001). […] Note that the reduction in the wound size on day 20 was more significant than those on day 10 in both the anterior and posterior holes (both p<0.001) (FIG. 20B).

[1] = tested on: ATF4, ATF3, CHOP, Runx2, Osterix, Rank 1, Osteocalcin mRNA; assay: mRNA expression levels by real-time PCR in MC3T3 cells; type: cell-based, mouse
Description: Responses to Administration of Thapsigargin—Upregulation of transcription factors linked to bone formation as well as PERK: The effects of 10 nM thapsigargin on mRNA expression levels of ISR-linked genes (ATF4, ATF3, and CHOP) as well as genes involved in bone remodeling (Runx2, Osterix, and Rank 1), were examined (FIG. 7). […] Out of 4 transcription factors (ATF4, ATF3, Runx2, and Osterix), the level of ATF4 mRNA was elevated 2-4 fold throughout the treatments. […] The mRNA level of type 1 collagen was elevated 5 h and 10 h for T1h (1 h exposure at 10 nM).
as §1

rat β-cells = conditions: 5-75 μM, dosage dependent; cited from earlier work
brainstem motoneurons = conditions: hypoxia and reoxygenation events; cited from earlier work
mouse tibia = assay: Mouse tibia bone formation, ankle loading plus local salubrinal; type: in vivo; conditions: 0.025 mg/kg (100 μM) salubrinal plus ankle loading, 5 days
Description: Mouse tibia-bone formation: Twenty C57/BL/6 Female Mice (˜8 weeks, body weight˜18 g) were employed to examine the combined effects of ankle loading and local administration of salubrinal to the tibia (Zhang P, et al., Salubrinal stimulates anabolic responses in mouse femora, 55th Ann Meeting ORS (2009)). Local administration was targeted into a bone marrow cavity from the proximal tibia. A total volume of 20 μl PBS was injected to the left hindlimb with or without 0.025 mg/kg (100 μM) salubrinal (Calbiochem) using a micro-syringe with a 0.5-inch #26-gauge needle (Worsham D N, et al., In vivo gene transfer into adult stem cells in unconditioned mice by in situ delivery of a lentiviral vector, Mol. Ther. 14:514-24 (2006); Zhu Y, et al., eIF-2α protects brainstem motoneurons in a murine model of sleep apnea, J. Neurosci. 28:2168-78 (2008)). In examination of the combined effects of mechanical loading and salubrinal administration, ankle loading was given for 5 consecutive days after administration of salubrinal on each day. The mouse was placed in an anesthetic induction chamber to cause sedation and then mask-anesthetized using 1.5% isoflurane. With a custom-made piezoelectric mechanical loader, loads were applied to the left ankle for 5 min/day in the lateral-medial direction. The loading frequency was 5 Hz, and the peak-to-peak force was 0.5 N (FIG. 15). […]

[2] = tested on: eIF2α-p and ATF4 proteins; assay: Western blot of eIF2α-p and ATF4 proteins in MC3T3 E1 osteoblast-like cells; type: cell-based, mouse
Description: (§2) At higher doses of 10 and 100 nM, the levels of eIF2α-p and ATF4 proteins were elevated (FIG. 5A). Thapsigarin is known to induce apoptosis when administered above a threshold concentration.
MS3T3 osteoblast-like cells were used to evaluate the level of eIF2α-p (phosphorylated form of eukaryotic initiation factor 2—subunit α) in response to salubrinal.

MC3T3 cells [3] = assay: Microarray analysis (GSEA, IPA) of thapsigargin-induced mild ER stress; type: cell-based, mouse; conditions: 1 h exposure at 10 nM
Description: Responses to Administration of Thapsigargin—Linkage to hypoxia through microarray analysis: In response to thapsigargin-induced mild ER stress (1 h exposure at 10 nM), microarray experiments were conducted. First, Gene Set Enrichment Analysis (GSEA; Broad Institute) was used to identify a group of genes that shared common biological functions (Hamamura, K., et al., “Microarray analysis of thapsigargin-induced stress to the endoplasmic reticulum of mouse osteoblasts,” J. Bone Miner. Metab. 26:231-240 (2008)). For each group of gene sets, GSEA calculates an enrichment score and evaluates statistical significance in the enrichment score. […] The highest normalized enrichment score was given to the gene set, HYPOXIA_UP. All genes present in the array were reordered based on a ranked list-metric value (a mean expression ratio between the thapsigargin-treated and untreated samples), and the best enrichment score of “−0.66” was assigned. Note that if the expression ratio is random among the genes in HYPOXIA_UP, the expected enrichment score is ±0.23. The enrichment score, ranked […] and P (enrichment score) supported the conclusions drawn from the software program output. […]

MC3T3 cells [4] = type: cell-based, mouse
[5] = tested on: PERK, PKR, p-38 MAPK, ERK1/2; assay: Phosphorylation of eIF2α kinases and MAP kinases; type: cell-based, mouse; conditions: 10 nM, 1 h exposure
Description: In response to T1h (1 h exposure at 10 nM), the level of phosphorylation of two eIF2α kinases (PERK and PKR), and two MAP kinases (p-38 MAPK and ERK1/2) was examined (FIG. 8).

[6] = tested on: CHOP, pro-caspase 3, cleaved caspase 3; assay: Protein levels of CHOP, pro-caspase 3 and cleaved caspase 3 (induction of apoptosis); type: cell-based, mouse; conditions: 10 nM
Description: as §2

[7] = 10 days after surgery, 0.025 mg/kg

SMILES: O=C(/C=C/c1ccccc1)NC(NC(=S)Nc1cccc2cccnc12)C(Cl)(Cl)Cl (stereo not drawn) [salubrinal]
- BMD of injected femur (femora of C57BL/6 mice; 20 μl 50 μM injection, 4 injections, mean±s.e.m.): 0.0456±0.0011 g/cm^2
- BMD compared to contralateral control (femora of C57BL/6 mice; p=0.02): increased
- BMC compared to contralateral control (femora of C57BL/6 mice; p=0.09): showed a trend to elevate
- increase in cortical thickness vs control (rat tibia; day 10): 11.6%
- increase in cortical thickness vs control (rat tibia; day 20): 20.3%
- reduction in wound size vs control (rat tibia; [7]): 12.3%
- reduction in wound size vs control (rat tibia; 20 days): 19.1%
- mRNA levels of ATF4, ATF3, Osteocalcin and CHOP (MLO-A5 osteocyte cells): did not show any significant alterations
- excitotoxic neuronal death in vivo (rat brain): decreased excitotoxic neuronal death
- increase in cortical thickness vs control (rat femur; day 10): 11.0%
- increase in cortical thickness vs control (rat femur; day 20): 25.7%
- reduction in wound size vs control (rat femur; [7]): 10.8%
- reduction in wound size vs control (rat femur; 20 days): 18.0%
- increase in cortical thickness (rat femur; postoperative 10 days): 13.8%
- increase in cortical thickness (rat femur; postoperative 20 days): 21.3%
- mRNA levels of ATF4, ATF3, Osteocalcin and CHOP ([1]; MC3T3 cells, 100 nM-50 μM, 1-24 h): upregulated
- apoptosis (rat β-cells): induced apoptosis
- motoneuronal injury (brainstem motoneurons): suppressed motoneuronal injury
- tibia BMC (mouse tibia): 0.0154 ± 0.0004 g
- tibia BMD (mouse tibia): 0.0443±0.0011 g/cm^2

SMILES: C/C=C(/C)C(=O)O[C@H]1C(C)=C2[C@H]([C@@H]1OC(=O)CCCCCCC)[C@@](C)(OC(C)=O)C[C@H](OC(=O)CCC)[C@@]1(O)[C@H]2OC(=O)[C@@]1(C)O [thapsigargin]
- levels of eIF2α-p and ATF4 proteins ([2]; 10 and 100 nM): elevated
- eIF2α-p and ATF4 protein expression ([2]; dosages below 0.1 nM): no detectable upregulation
- core enrichment genes in HYPOXIA_UP vs control (MC3T3 cells [3]): significantly upregulated
- numbers of live and dead cells (MC3T3 cells [4]; 10 nM, 1 h incubation): does not alter
- cell number or mortality vs control cells (MC3T3 cells [4]; 1 h exposure at 10 nM): no significant difference
- increase in Runx2 mRNA ([1]; 10 nM): started at 3 h and peaked at 5 h
- mRNA level of CHOP ([1]; 10 nM): 10-35 fold
- mRNA level of type 1 collagen ([1]; 10 nM, 1 h exposure, 5 h and 10 h): elevated
- Rank 1 mRNA ([1]; 10 nM, 3 h for T2h and 10 h for T3h): significantly up
- level of Osteocalcin mRNA ([1]; 1-100 nM for 1-24 h): did not increase
- level of p-ERK1/2 [5]: not altered
- level of p-PERK [5]: elevated
- level of p-PKR [5]: not altered
- level of p-p38 MAPK [5]: elevated
- level of active (cleaved) caspase 3 [6]: increased after 24 h
- level of CHOP protein ([6]; higher for 5, 10 and 24 h): started to increase after 3 h
